Key:
Assay type in all cases: cell-based, mouse
4T1-EGFRvIII cells = assay: CCK8 proliferation assay, olaparib on 4T1-EGFRvIII breast cancer cells
Excerpt: Since the EGFR287-302 epitope is only exposed in EGFRvIII or tumors overexpressing EGFR, this epitope is hidden in normal tissues (Gan H K et al., Targeting of a conformationally exposed, tumor-specific epitope of EGFR as a strategy for cancer therapy. Cancer Res. 2012, 72(12):2924-2930), conventional methods in molecular biology are used to establish E0771, 4T1 mouse breast cancer cell models (E0771-EGFRvIII, 4T1-EGFRvIII) that overexpress mouse EGFR inserted with amino acid epitope at positions 287-302 of human EGFR. Subsequent research is performed to screen EGFRvIII target-positive cells by cell flow cytometry (FIG. 2A). E0771, 4T1 cells are purchased from the American Type Culture Collection (ATCC).
As an effective inhibitor of PARP1, olaparib may inhibit PARP1 to participate in DNA damage repair process. In mouse breast cancer cell lines and mouse T cells and CART cells, different levels of PARP1 expression are detected (FIG. 2B). Therefore, CCK8 proliferation assay is required to detect the effect of olaparib on proliferation of tumor cells and CART cells.
806-m28Z CAR-T cells in Example 1 are taken to spread in a 96-well plate with 1×10^4 cells per well and 100 μl medium. Breast cancer cells E0771-EGFRvIII and 4T1-EGFRvIII are taken to spread in a 96-well plate with 1×10^4 cells per well and 100 μl medium. Different concentrations of olaparib are taken to add to the cells to make 10 concentration gradients (i.e., the treatment concentrations of olaparib are respectively 50 μM, 20 μM, 10 μM, 5 μM, 2.5 μM, 1 μM, 0.1 μM, 0.01 μM, 0.001 μM, 0 μg/ml). After 48 hours of drug treatment for cells of different groups, 10 μl of CCK8 substrate color reagent (Dojindo) is added to each well; after incubating for 1 hour at 37° C., the absorbance at 450 nm is measured by a microplate reader, calculating the cell viability respectively.
The formula for calculating the cell viability is as follows:
Cell viability (%)=[A (adding drug)−A (blank)]/[A (without adding drug)−A (blank)]

E0771-EGFRvIII cells = assay: LDH cytotoxicity assay, CAR-T killing of olaparib-treated E0771-EGFRvIII cells
Experimental: The experimental groups for incubating with cells that are positive for the antigen target comprises the following 4 groups: UTD group, 806-mCD28z-CAR-T group (or denoted as 806-28Z), olaparib pretreatment group, and olaparib combined treatment group;
the olaparib pretreatment group comprises: UTD+1 μM olaparib pretreatment group (or denoted as UTD+Olaparib 1 μM pretreatment), UTD+5 μM olaparib pretreatment group (or denoted as UTD+Olaparib 5 μM pretreatment), 806-mCD28z-CAR-T+1 μM olaparib pretreatment group (or denoted as 806-28Z+Olaparib 1 μM pretreatment). 806-mCD28z-CAR-T+5 μM olaparib pretreatment group (or denoted as 806-28Z+Olaparib 5 μM pretreatment); […]
Olaparib pretreatment group: different concentrations of olaparib (1 μM, 5 μM) are added to the medium for culturing E0771-EGFRVIII or 4T1-EGFRvIII tumor cells respectively, culturing at 37° C. for 24 h, and then the cells are treated with trypsin and resuspended in fresh medium. The untreated mouse T cells and 806-mCD28z-CAR T cells in Example 1 are respectively taken to incubate with E0771-EGFRvIII or 4T1-EGFRVIII cells pretreated with different concentrations of olaparib at a ratio of 1:3, 1:1, and 3:1; 16 hours later, the secretion of LDH in the supernatant is detected by Cytox 96 Non-Radioactive Cytotoxicity Assay, then calculating the killing toxicity of 806-mCD28z CAR T cells to tumor cells pretreated with different concentrations of olaparib. […] Cytox 96 Non-Radioactive Cytotoxicity Assay (Promaga, REF: G1782); at the same time, the secretions of cytokines Granzyme B, IFN-γ, and IL-2 in the supernatant are detected by ELISA kit (Lianke Biotech Co. Ltd. CAT: 18^.22), for specific experimental procedures, referring to instructions of MouseGranzyme B, IFN-γ, IL-2 ELISA kit from Lianke Biotech Co, Ltd. […]

[1] = tested on: cytokines Granzyme B, IFN-γ, and IL-2; assay: ELISA of cytokines in supernatant of co-cultured E0771-EGFRvIII cells and CAR-T cells; conditions: E0771-EGFRvIII co-culture
Experimental: (§1) Olaparib pretreatment group: different concentrations of olaparib (1 μM, 5 μM) are added to the medium for culturing E0771-EGFRVIII or 4T1-EGFRvIII tumor cells respectively, culturing at 37° C. for 24 h, and then the cells are treated with trypsin and resuspended in fresh medium. The untreated mouse T cells and 806-mCD28z-CAR T cells in Example 1 are respectively taken to incubate with E0771-EGFRvIII or 4T1-EGFRVIII cells pretreated with different concentrations of olaparib at a ratio of 1:3, 1:1, and 3:1; 16 hours later, the secretion of LDH in the supernatant is detected by Cytox 96 Non-Radioactive Cytotoxicity Assay, then calculating the killing toxicity of 806-mCD28z CAR T cells to tumor cells pretreated with different concentrations of olaparib. For specific detection steps and calculation methods, see the instructions of Promaga. Cytox 96 Non-Radioactive Cytotoxicity Assay (Promaga, REF: G1782); at the same time, the secretions of cytokines Granzyme B, IFN-γ, and IL-2 in the supernatant are detected by ELISA kit (Lianke Biotech Co. Ltd. CAT: 18^.22), for specific experimental procedures, referring to instructions of MouseGranzyme B, IFN-γ, IL-2 ELISA kit from Lianke Biotech Co, Ltd.
Olaparib combined treatment group: different concentrations of olaparib (1 μM, 5 μM) are added to the medium for culturing E0771-EGFRVIII or 4T1-EGFRvIII tumor cells respectively, culturing at 37° C. for 24 h, and then the cells are treated with trypsin and resuspended in fresh medium. The untreated mouse T cells and 806-mCD28z-CAR T cells in Example 1 are respectively taken to incubate with E0771-EGFRvIII or 4T1-EGFRvIII cells treated with different concentrations of olaparib at a ratio of 1:3, 1:1, and 3:1; after corresponding concentrations of olaparib (1 μM, 5 μM) are added to treat the cells continuously for 16 hours, the secretion of LDH in the supernatant is detected by Cytox 96 Non-Radioactive Cytotoxicity Assay, then calculating the killing toxicity of 806-mCD28z CAR T cells to tumor cells pretreated with different concentrations of olaparib. […]

[2] = tested on: cytokines Granzyme B, IFN-γ, and IL-2; assay: ELISA of cytokines in supernatant of co-cultured 4T1-EGFRvIII cells and CAR-T cells; conditions: 4T1-EGFRvIII co-culture with CAR-T cells, olaparib groups
Experimental: as §1, with “Co, Ltd. […]” for “Co, Ltd.”

[3] = olaparib pretreatment and combined treatment groups vs CAR-T single treatment group

O=C(c1cc(Cc2n[nH]c(=O)c3ccccc23)ccc1F)N1CCN(C(=O)C2CC2)CC1 [olaparib]
inhibition rate of proliferation of 4T1-EGFRvIII cell line (4T1-EGFRvIII cells; 1 μM and higher concentration of olaparib, 48 hours, CCK8): 30-40%
proliferation of 4T1-EGFRvIII cells (4T1-EGFRvIII cells; 1 μM olaparib): inhibited
proliferation of 4T1-EGFRvIII cells (4T1-EGFRvIII cells; 504 olaparib): inhibited
lethal effect on E0771-EGFRvIII cells compared with the CAR-T single treatment group (E0771-EGFRvIII cells; 5 μM olaparib combined treatment group): higher synergistic lethal effect
promotion of the killing effect of CAR-T cells on E0771-EGFRvIII cells (E0771-EGFRvIII cells; 5 μM olaparib pretreatment group, better than 5 μM combined treatment group): most significant
killing effect of CAR-T cells on E0771-EGFRvIII cells (E0771-EGFRvIII cells; olaparib 1 μM or 5 μM, pretreatment or combined treatment, vs CAR-T alone, ratio 1:3, 1:1, 3:1, 16 hours, LDH): significantly improved
level of Granzyme B in the supernatant [1, 3]: do not increase significantly
level of IL-2 in the supernatant [1, 3]: do not increase significantly
level of IFN-γ in the supernatant ([1]; olaparib pretreatment group and olaparib combined treatment group vs CAR-T single treatment group): significantly increased
level of cytokine in the supernatant [2]: not increased

Reference: patent publication US20230158071A1, “TUMOR COMBINED IMMUNOTHERAPY” (CRAGE medical Co., Limited, priority 2018, published 2023)
